For four compounds, relative viability results are on record in the supplement of paper PMC10307832.

In the first test the test system is NCI-H1395. The experiment in a line: relative viability (nuclei count vs DMSO), 5 days (fraction); higher = more cells survive. As to conditions: first compound 0.2 µM. A digest of the protocol:
(§1)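 Values are medians from duplicate plates. Each reflects relative viability, defined as the nuclei count of treated wells over that of vehicle wells. Lung cancer cell lines in 1536-well plates were pin-tool dosed one day after seeding with one drug alone or with a fixed anchor-drug dose plus five library-drug doses (not always all listed) in √10 steps, then fixed, stained and imaged at 4× after 5 days.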
For `COCC1(CO)C(=O)C2CCN1CC2` (stereo not given) [PRIMA-1MET] + CS(=O)(=O)N1CCN(Cc2cc3nc(-c4cccc5[nH]ncc45)nc(N4CCOCC4)c3s2)CC1 [Pictilisib] (partner 1 µM), the relative viability worked out at 0.613.
Turning to `COCC1(CO)C(=O)C2CCN1CC2` (stereo not given) [PRIMA-1MET] + CCNC(=O)c1noc(-c2cc(C(C)C)c(O)cc2O)c1-c1ccc(CN2CCOCC2)cc1 [Luminespib] (partner 0.01 µM), the relative viability worked out at 0.845.
Compound `COCC1(CO)C(=O)C2CCN1CC2` (stereo not given) [PRIMA-1MET] + CC(=O)c1c(C)c2cnc(Nc3ccc(N4CCNCC4)cn3)nc2n(C2CCCC2)c1=O [Palbociclib] (partner 0.5 µM) registered a relative viability of 0.665.
In turn, `COCC1(CO)C(=O)C2CCN1CC2` (stereo not given) [PRIMA-1MET] + Cc1nc(Nc2ncc(C(=O)Nc3c(C)cccc3Cl)s2)cc(N2CCN(CCO)CC2)n1 [Dasatinib] (partner 0.075 µM) had a relative viability of 0.409.

The test is the same for the next values; noted with them: first compound 0.6325 µM.
In the case of `COCC1(CO)C(=O)C2CCN1CC2` (stereo not given) [PRIMA-1MET] + CS(=O)(=O)N1CCN(Cc2cc3nc(-c4cccc5[nH]ncc45)nc(N4CCOCC4)c3s2)CC1 [Pictilisib] (partner 1 µM), the relative viability was found to be 0.458.
Still for that read-out and setting: the figure for `COCC1(CO)C(=O)C2CCN1CC2` (stereo not given) [PRIMA-1MET] + CCNC(=O)c1noc(-c2cc(C(C)C)c(O)cc2O)c1-c1ccc(CN2CCOCC2)cc1 [Luminespib] (partner 0.01 µM) is 0.676; for `COCC1(CO)C(=O)C2CCN1CC2` (stereo not given) [PRIMA-1MET] + Cc1nc(Nc2ncc(C(=O)Nc3c(C)cccc3Cl)s2)cc(N2CCN(CCO)CC2)n1 [Dasatinib] (partner 0.075 µM) it is 0.458.

The same test, now with this note: first compound 2 µM.
In turn, `COCC1(CO)C(=O)C2CCN1CC2` (stereo not given) [PRIMA-1MET] + CS(=O)(=O)N1CCN(Cc2cc3nc(-c4cccc5[nH]ncc45)nc(N4CCOCC4)c3s2)CC1 [Pictilisib] (partner 1 µM) had a relative viability of 0.602.
For `COCC1(CO)C(=O)C2CCN1CC2` (stereo not given) [PRIMA-1MET] + CCNC(=O)c1noc(-c2cc(C(C)C)c(O)cc2O)c1-c1ccc(CN2CCOCC2)cc1 [Luminespib] (partner 0.01 µM), the relative viability stood at 0.677.
Compound `COCC1(CO)C(=O)C2CCN1CC2` (stereo not given) [PRIMA-1MET] + CC(=O)c1c(C)c2cnc(Nc3ccc(N4CCNCC4)cn3)nc2n(C2CCCC2)c1=O [Palbociclib] (partner 0.5 µM) yielded a relative viability of 0.641.
Still for that read-out and setting: then `COCC1(CO)C(=O)C2CCN1CC2` (stereo not given) [PRIMA-1MET] + Cc1nc(Nc2ncc(C(=O)Nc3c(C)cccc3Cl)s2)cc(N2CCN(CCO)CC2)n1 [Dasatinib] (partner 0.075 µM), with 0.493.

The test is the same for the next values; noted with them: first compound 6.325 µM.
With `COCC1(CO)C(=O)C2CCN1CC2` (stereo not given) [PRIMA-1MET] + CS(=O)(=O)N1CCN(Cc2cc3nc(-c4cccc5[nH]ncc45)nc(N4CCOCC4)c3s2)CC1 [Pictilisib] (partner 1 µM), the relative viability worked out at 0.518.
With `COCC1(CO)C(=O)C2CCN1CC2` (stereo not given) [PRIMA-1MET] + CCNC(=O)c1noc(-c2cc(C(C)C)c(O)cc2O)c1-c1ccc(CN2CCOCC2)cc1 [Luminespib] (partner 0.01 µM), the relative viability came out at 0.603.
Regarding `COCC1(CO)C(=O)C2CCN1CC2` (stereo not given) [PRIMA-1MET] + CC(=O)c1c(C)c2cnc(Nc3ccc(N4CCNCC4)cn3)nc2n(C2CCCC2)c1=O [Palbociclib] (partner 0.5 µM), the relative viability stood at 0.656.
The same measure, in the same setting: the figure for `COCC1(CO)C(=O)C2CCN1CC2` (stereo not given) [PRIMA-1MET] + Cc1nc(Nc2ncc(C(=O)Nc3c(C)cccc3Cl)s2)cc(N2CCN(CCO)CC2)n1 [Dasatinib] (partner 0.075 µM) is 0.38.

The test is the same for the next values; noted with them: first compound 20 µM.
For `COCC1(CO)C(=O)C2CCN1CC2` (stereo not given) [PRIMA-1MET] + CS(=O)(=O)N1CCN(Cc2cc3nc(-c4cccc5[nH]ncc45)nc(N4CCOCC4)c3s2)CC1 [Pictilisib] (partner 1 µM), the relative viability was found to be 0.383.
For `COCC1(CO)C(=O)C2CCN1CC2` (stereo not given) [PRIMA-1MET] + CCNC(=O)c1noc(-c2cc(C(C)C)c(O)cc2O)c1-c1ccc(CN2CCOCC2)cc1 [Luminespib] (partner 0.01 µM), the relative viability turned out to be 0.406.
As to `COCC1(CO)C(=O)C2CCN1CC2` (stereo not given) [PRIMA-1MET] + CC(=O)c1c(C)c2cnc(Nc3ccc(N4CCNCC4)cn3)nc2n(C2CCCC2)c1=O [Palbociclib] (partner 0.5 µM), the relative viability is 0.578.
`COCC1(CO)C(=O)C2CCN1CC2` (stereo not given) [PRIMA-1MET] + Cc1nc(Nc2ncc(C(=O)Nc3c(C)cccc3Cl)s2)cc(N2CCN(CCO)CC2)n1 [Dasatinib] (partner 0.075 µM) displayed a relative viability of 0.396.

The next test concerns LC-2-ad. The description is as above. As to conditions: first compound 0.2 µM. Summed up:
as §1
`COCC1(CO)C(=O)C2CCN1CC2` (stereo not given) [PRIMA-1MET] + CS(=O)(=O)N1CCN(Cc2cc3nc(-c4cccc5[nH]ncc45)nc(N4CCOCC4)c3s2)CC1 [Pictilisib] (partner 1 µM) displayed a relative viability of 0.933.
For `COCC1(CO)C(=O)C2CCN1CC2` (stereo not given) [PRIMA-1MET] + CCNC(=O)c1noc(-c2cc(C(C)C)c(O)cc2O)c1-c1ccc(CN2CCOCC2)cc1 [Luminespib] (partner 0.01 µM), the relative viability came to 1.26.
Same read-out and setting: the figure for `COCC1(CO)C(=O)C2CCN1CC2` (stereo not given) [PRIMA-1MET] + CC(=O)c1c(C)c2cnc(Nc3ccc(N4CCNCC4)cn3)nc2n(C2CCCC2)c1=O [Palbociclib] (partner 0.5 µM) is 0.496.
Compound `COCC1(CO)C(=O)C2CCN1CC2` (stereo not given) [PRIMA-1MET] + Cc1nc(Nc2ncc(C(=O)Nc3c(C)cccc3Cl)s2)cc(N2CCN(CCO)CC2)n1 [Dasatinib] (partner 0.075 µM) gave a relative viability of 0.346.

Staying with this test, now noted: first compound 0.6325 µM.
For the compound `COCC1(CO)C(=O)C2CCN1CC2` (stereo not given) [PRIMA-1MET] + CS(=O)(=O)N1CCN(Cc2cc3nc(-c4cccc5[nH]ncc45)nc(N4CCOCC4)c3s2)CC1 [Pictilisib] (partner 1 µM), the relative viability amounted to 0.445.
As for `COCC1(CO)C(=O)C2CCN1CC2` (stereo not given) [PRIMA-1MET] + CC(=O)c1c(C)c2cnc(Nc3ccc(N4CCNCC4)cn3)nc2n(C2CCCC2)c1=O [Palbociclib] (partner 0.5 µM), the relative viability is 0.484.
